{"source": "patent US20130090381A1", "about": "“PYRETHRINOID-TYPE ESTERS AS PESTICIDES” (SUMITOMO CHEMICAL COMPANY, LIMITED, priority 2010, published 2013)", "system": "German cockroaches", "assay": "Knockdown test on German cockroaches by spraying an oil solution", "type": "in vivo, German cockroach (Blattella germanica)", "conditions": "0.1% (w/v) oil solution, 1.5 ml sprayed; after 15 minutes; ten German cockroaches (5 of each male and female)", "experimental": "The present invention compound (1) (0.1 parts) produced in the aforementioned Production Example was dissolved in 10 parts of isopropyl alcohol and the resulting solution was mixed with 89.9 parts of deodorized kerosine to prepare a 0.1% (w/v) oil solution.\nTen German cockroaches (5 of each male and female) were released in a test container (measuring 8.75 cm in diameter and 7.5 cm in height, bottom area covered with a 16 mesh wire netting) coated with butter at an inner wall, and the container was disposed on the bottom of a test chamber (bottom surface measuring 46 cm and 46 cm, 70 cm in height).\nFrom 60 cm in height above the container, 1.5 ml of the oil solution of the present invention compound (1) was sprayed using a spray gun (spray pressure: 0.4 kg/cm^2). Thirty seconds after spraying, the container was removed from the test chamber. After a given time, the number of knockdowned cockroaches was counted and a knockdown rate was determined (repeated once). The knockdown rate was calculated by the following equation.\nKnockdown rate (%)=(number of knockdowned cockroaches/number of test cockroaches)×100"}
{"smiles": "C#CCC1=C(C)[C@@H](OC(=O)[C@@H]2[C@@H](/C=C(C#N)/C=C/C)C2(C)C)CC1=O", "note": "[present invention compound (1), (S)-2-methyl-3-propynylcyclopent-2-en-4-on-1-yl=(1R)-trans-3-[(1Z,3E)-2-cyano-1,3-pentadienyl]-2,2-dimethylcyclopropane carboxylate]", "values": [{"measurement": "knockdown rate", "result": 100, "unit": "%"}]}
